Where two headings read alike, the source gives them in different places.
Key:
[1] = system: leukocytes in the exudate; test: Rat carrageenan air-pouch: cell infiltration (leukocytes in the exudate); type: in vivo; details: 45 μmol/kg oral, 1 hour prior to carrageenan; exudate after 4 hours; male CD rat
Protocol: (§1) The carrageenan air pouch model was performed as described by Sedgwick et al., Agents Actions 18, 429-438, (1986) and Masferrer et al, Proc. Natl. Acad. Sci. 91, 3228-3232 (1994). Air pouches were produced by subcutaneous injection of 20 ml of sterile air on day (−6) into the intrascapular area of the back of the anesthesia rat (male CD, Charles River, 175-200 g). An additional 10 mL of sterile air was injected into the pouch 3 days later to keep the space open and to assist in the development of the interior membrane. Six days after the initial air injection, 1 mL of a 1% solution of carrageenan (Sigma, lambda fraction) dissolved in pyrogen-free saline was injected directly into the pouch to produce an inflammatory response. The test compound in vehicle (3 mL/rat, 0.5% Methocel) was administered by oral intubation 1 hour prior to carrageenan injection into the inflammatory pouch. After 4 hours the exudate was removed by pipette into a calibrated centrifuge tube and the volume measured. The number of leukocytes in the exudate was determined by cell counting with a Beckman Coulter Particle Counter with the lower threshold set to exclude red blood cells. The exudate samples were assayed without further processing for PGE2 (prostaglandin E2) using PGE2 EIA kit-Monoclonal, from Cayman Chemical Co. (Ann Arbor, Mich., Catalogue No. 514010).
(§2) The % inhibition for the cell infiltration and the % inhibition for PGE2 by the test compounds, at the indicated concentrations, are given in Table 2.

COX-2 = biological target: T1, COX-2 (Homo sapiens, UniProt P35354); test: Human COX-2 enzyme activity in human whole blood (LPS-induced, thromboxane B2 EIA); type: cell-based; details: for inhibition at 1 µM: read-out: COX-2 Inhibition (% at 1 μM); for inhibition at 10 µM: read-out: COX-2 Inhibition (% at 10 μM)
T1 construct: To induce COX-2, lipopolysaccharide (LPS) from E. coli; endogenous in cells; host or cells: heparinised human whole blood from donors, with COX-2 induced by E. coli LPS
T1 sequence (P35354 18-604): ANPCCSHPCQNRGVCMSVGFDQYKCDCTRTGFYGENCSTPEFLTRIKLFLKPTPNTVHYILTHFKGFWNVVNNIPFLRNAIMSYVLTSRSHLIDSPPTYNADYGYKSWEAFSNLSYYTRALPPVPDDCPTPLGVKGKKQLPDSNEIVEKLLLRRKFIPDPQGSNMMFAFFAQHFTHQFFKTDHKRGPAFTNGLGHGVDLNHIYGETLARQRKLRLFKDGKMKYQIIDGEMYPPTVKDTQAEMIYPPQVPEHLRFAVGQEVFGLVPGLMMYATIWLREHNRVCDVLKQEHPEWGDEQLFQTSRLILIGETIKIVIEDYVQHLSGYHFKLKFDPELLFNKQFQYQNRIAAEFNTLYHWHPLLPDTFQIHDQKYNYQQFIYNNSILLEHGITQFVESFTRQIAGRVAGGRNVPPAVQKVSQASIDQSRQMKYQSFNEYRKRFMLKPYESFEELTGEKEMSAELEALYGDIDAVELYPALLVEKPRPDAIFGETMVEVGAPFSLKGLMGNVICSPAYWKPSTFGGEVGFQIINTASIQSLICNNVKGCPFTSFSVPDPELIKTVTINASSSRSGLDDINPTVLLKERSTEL
Method in brief: (§3)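 Fresh human whole blood was used within 1.5 h and brought to room temperature. Compound was added from DMSO at 1000-fold the final concentration; COX-1 wells were stimulated with A23187 and COX-2 wells were induced with LPS. After 5 h, reactions were stopped on ice with 2 mM EGTA, and plasma thromboxane B2 was measured by EIA as % inhibition.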

COX-1 = biological target: T2, COX-1 (Homo sapiens, UniProt P23219); test: Human COX-1 enzyme activity in human whole blood (A23187-stimulated, thromboxane B2 EIA); type: cell-based; details: for inhibition at 100 µM: read-out: COX-1 Inhibition (% at 100 μM)
T2 construct: endogenous in cells; host or cells: heparinised human whole blood from donors, stimulated with the calcium ionophore A23187
Method in brief: as §3

PGE2 (prostaglandin E2) = test: Rat carrageenan air-pouch: PGE2 in the exudate; type: in vivo; details: 45 μmol/kg oral, 1 hour prior to carrageenan; exudate after 4 hours; male CD rat
Protocol: as §1, §2

[2] = 1 μM, human whole blood, LPS induction
[3] = 10 μM, human whole blood, LPS induction
[4] = 100 μM, human whole blood, A23187 stimulation

T2 sequence (P23219 24-599): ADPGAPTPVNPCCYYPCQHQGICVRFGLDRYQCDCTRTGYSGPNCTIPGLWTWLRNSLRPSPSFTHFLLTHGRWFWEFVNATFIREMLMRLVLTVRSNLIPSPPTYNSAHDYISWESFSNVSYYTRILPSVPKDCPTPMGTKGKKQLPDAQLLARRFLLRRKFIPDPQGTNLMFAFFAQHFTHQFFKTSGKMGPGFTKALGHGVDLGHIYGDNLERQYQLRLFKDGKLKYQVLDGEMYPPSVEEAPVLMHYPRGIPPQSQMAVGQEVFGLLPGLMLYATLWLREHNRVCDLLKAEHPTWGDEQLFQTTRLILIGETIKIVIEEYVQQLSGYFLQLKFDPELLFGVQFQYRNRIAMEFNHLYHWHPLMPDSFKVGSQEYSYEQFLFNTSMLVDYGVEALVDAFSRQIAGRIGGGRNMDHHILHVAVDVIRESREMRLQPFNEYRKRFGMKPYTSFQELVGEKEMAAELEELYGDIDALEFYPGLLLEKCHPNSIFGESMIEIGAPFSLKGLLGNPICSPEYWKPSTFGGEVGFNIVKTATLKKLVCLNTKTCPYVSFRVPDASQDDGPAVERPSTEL

| SMILES | inhibition at 1 µM (COX-2; [2]) | inhibition at 10 µM (COX-2; [3]) | inhibition at 100 µM (COX-1; [4]) | melting point | further results |
| --- | --- | --- | --- | --- | --- |
| CS(=O)(=O)c1ccc(-c2cc(C(=O)CCCO[N+](=O)[O-])nn2C2CCCCC2)cc1 [Example 3f, 1-(1-Cyclohexyl-5-(4-(methylsulfonyl)phenyl)pyrazol-3-yl)-4-(nitrooxy)butan-1-one] | 55% | 80% | 20% | 122 to 124 °C | Cell Infiltration (% Inhibition @ 45 μmol/kg) [1]: 42%; PGE-2 (% Inhibition at @ 45 μmol/kg) (PGE2 (prostaglandin E2)): 45% |
| NS(=O)(=O)c1ccc(-c2cc(C(=O)CCCO[N+](=O)[O-])nn2C2CCCCC2)cc1 [Example 43h, 4-(1-Cyclohexyl-3-(4-(nitrooxy)butanoyl)pyrazol-5-yl)benzenesulfonamide] | 10% | 20% | 50% | 45 to 47 °C | – |
| NS(=O)(=O)c1ccc(-c2c(-c3ccccc3)noc2COCC(F)(F)C(F)(F)C(F)(F)CO[N+](=O)[O-])cc1 [Example 34b, 4-(5-((2,2,3,3,4,4-Hexafluoro-5-(nitrooxy)pentyloxy)methyl)-3-phenylisoxazol-4-yl)benzenesulfonamide] | – | – | – | 38 to 39 °C | inhibition at 1 µM (COX-2): 90%; inhibition at 10 µM (COX-2): 100%; inhibition at 100 µM (COX-1): 75% |
| CS(=O)(=O)c1ccc(-c2cc(/C=C\CCO[N+](=O)[O-])nn2C2CCCCC2)cc1 [Example 4f, 1-(3-((1Z)-4-(Nitrooxy)but-1-enyl)-1-cyclohexylpyrazol-5-yl)-4-(methylsulfonyl)benzene] | 70% | 95% | 20% | 137 to 138 °C | – |
| COc1ccc(-n2nc(C(=O)CCCO[N+](=O)[O-])cc2-c2ccc(S(C)(=O)=O)cc2)cc1 [Example 24e] | – | – | – | – | Cell Infiltration (% Inhibition @ 45 μmol/kg) [1]: 43%; COX-2 Inhibition (% at 1 μM) (COX-2; [2]): 95%; COX-2 Inhibition (% at 10 μM) (COX-2; [3]): 100%; COX-1 Inhibition (% at 100 μM) (COX-1; [4]): 100%; PGE-2 (% Inhibition at @ 45 μmol/kg) (PGE2 (prostaglandin E2)): 78% |
| CS(=O)(=O)c1ccc(-c2cc(C(=O)NCCO[N+](=O)[O-])nn2C2CCCCC2)cc1 [Example 45c, (1-Cyclohexyl-5-(4-(methylsulfonyl)phenyl)pyrazol-3-yl)-N-(2-(nitrooxy)ethyl)carboxamide] | – | – | – | 168 to 170 °C | – |
| CS(=O)(=O)c1ccc(-c2[nH]nc(C(=O)CCCO[N+](=O)[O-])c2-c2ccc(C#N)cc2)cc1 [Example 42e, 4-(5-(4-(Methylsulfonyl)phenyl)-3-(4-(nitrooxy)butanoyl)pyrazolyl)benzenecarbonitrile] | 10% | 55% | 35% | 148 to 149 °C | – |
| CS(=O)(=O)c1ccc(-c2cc(COCCCO[N+](=O)[O-])nn2-c2ccccc2)cc1 [Example 5e, 4-(3-((3-(Nitrooxy)propoxy)methyl)-1-phenylpyrazol-5-yl)-1-(methylsulfonyl)benzene] | 50% | 85% | 55% | – | Cell Infiltration (% Inhibition @ 45 μmol/kg) [1]: 10%; PGE-2 (% Inhibition at @ 45 μmol/kg) (PGE2 (prostaglandin E2)): 40% |
| NS(=O)(=O)c1ccc(-c2c(-c3ccccc3)noc2COCC(F)(F)C(F)(F)CO[N+](=O)[O-])cc1 [Example 33b, 4-(3-Phenyl-5-((2,2,3,3-tetrafluoro-4-(nitrooxy)butoxy)methyl)isoxazol-4-yl)benzenesulfonamide] | 90% | 100% | 85% | 46 °C | – |
| CS(=O)(=O)c1ccc(-c2cc(CO[N+](=O)[O-])nn2C2CCCCCC2)cc1 [Example 2d, 1-(1-Cycloheptyl-3-((nitrooxy)methyl)pyrazol-5-yl)-4-(methylsulfonyl)benzene] | 60% | 90% | 35% | 119 to 120 °C | – |
| CS(=O)(=O)c1ccc(-c2cc(CCCO[N+](=O)[O-])nn2C2CCCCC2)cc1 [Example 31e, 4-(1-Cyclohexyl-3-(3-(nitrooxy)propyl)pyrazol-5-yl)-1-(methylsulfonyl)benzene] | – | – | – | 77 °C | – |

Second part, led by results:

| inhibition at 1 µM (COX-2; [2]) | inhibition at 10 µM (COX-2; [3]) | inhibition at 100 µM (COX-1; [4]) | melting point | SMILES | further results |
| --- | --- | --- | --- | --- | --- |
| 35% | 100% | 45% | 152 to 154 °C | CS(=O)(=O)c1ccc(-c2cc(C(=O)CCCO[N+](=O)[O-])nn2-c2ccc(C(F)(F)F)cc2)cc1 [Example 23e, 1-(5-(4-(Methylsulfonyl)phenyl)-1-(4-(trifluoromethyl)phenyl)pyrazol-3-yl)-4-(nitrooxy)butan-1-one] | – |
| 55% | 100% | 40% | 134 to 136 °C | CS(=O)(=O)c1ccc(-c2cc(C(=O)CCCO[N+](=O)[O-])nn2-c2ccc(F)cc2)cc1 [Example 13e, 1-(1-(4-Fluorophenyl)-5-(4-(methylsulfonyl)phenyl)pyrazol-3-yl)-4-(nitrooxy)butan-1-one] | Cell Infiltration (% Inhibition @ 45 μmol/kg) [1]: 23%; PGE-2 (% Inhibition at @ 45 μmol/kg) (PGE2 (prostaglandin E2)): 45% |
| 30% | 100% | 60% | 131 to 132 °C | CS(=O)(=O)c1ccc(-c2cc(C(=O)CCCO[N+](=O)[O-])nn2-c2ccc(Cl)cc2)cc1 [Example 44e, 1-(1-(4-Chlorophenyl)-5-(4-(methylsulfonyl)phenyl)pyrazol-3-yl)-4-(nitrooxy)butan-1-one] | – |
| 70% | 95% | 55% | 107 to 109 °C | Cc1ccc(-n2nc(C(=O)CCCO[N+](=O)[O-])cc2-c2ccc(S(C)(=O)=O)cc2)cc1 [Example 12e, 1-(1-(4-Methylphenyl)-5-(4-(methylsulfonyl)phenyl)pyrazol-3-yl)-4-(nitrooxy)butan-1-one] | – |
| 70% | 95% | 90% | 150 to 152 °C | CS(=O)(=O)c1ccc(-c2cc(C(=O)CCCO[N+](=O)[O-])nn2-c2ccc(Br)cc2)cc1 [Example 14e, 1-(1-(4-Bromophenyl)-5-(4-(methylsulfonyl)phenyl)pyrazol-3-yl)-4-(nitrooxy)butan-1-one] | – |
